From patent US9127103B2, “Polymerizable liquid crystal compound, a liquid crystal composition comprising the compound, and an optically anisotropic body comprising the same” (LG CHEM, LTD., priority 2012, dated 2015)

Columns and labels:
[1] = Measurement of solubility of the compound in various solvents; assay type: physicochemical; conditions: for Solubility TXB: TXB = Toluene:Xylene:Butyl cellosolve 7:2:1 (weight ratio); for Solubility TXB / Solubility Cyclopentanone / Solubility Toluene + Heated: 25 parts by weight per 100 parts of solution; for Solubility Toluene + Heated: room temperature solution heated about 10 secs with a heat gun; for Solubility Toluene: 25 parts by weight of compound per 100 parts by weight of total solution
Procedure: At this time, the content of each compound in the solvent was 25 parts by weight per 100 parts by weight of total solution. In the following Table 1, when the compound was completely dissolved in the solvent and the solution was transparent, it was indicated by ‘◯’; when the compound was dissolved in the solvent but the solution was opaque, it was indicated by ‘Δ’; and when the compound was not dissolved at all, it was indicated by ‘×’. And, the term ‘heated’ in Table 1 means that the solution of room temperature including the compound was heated for about 10 secs by using a heat gun.

[2] = Measurement of birefringence (Δn) of retardation films by Axoscan; assay type: physicochemical; conditions: retardation film of the compound; solvent TXB, TAC film; Δn calculated from retardation value and film thickness
Procedure: The liquid crystal composition coated with a roll coating method on a TAC (triacetyl cellulose) film on which norbornene-based photoaligning material was coated, and dried at about 80° C. for 2 mins so as that the liquid crystal compound was aligned. And then, the retardation film was prepared by exposing the film to a non-polarized UV from a high pressure mercury lamp of 200 mW/cm^2 so as to fixing the oriented state of the liquid crystal.
Like above method, the compositions including any one of compounds RM-02 to RM-08 instead of compound RM-01 were prepared, and the retardation films were prepared respectively by using the same.
And, the retardation film was prepared substantially according to the same method as in Preparation Examples 1˜8, except that the compound of Chemical Formula 10 was used instead of compound RM-01.
Quantitative retardation values of the retardation films according to Preparation Examples 1˜8, Comparative Preparation Examples 1˜2, and Reference Example were measured by using Axoscan (made by Axomatrix Co.). At this time, the thickness of the film was independently measured and Δn was calculated from the obtained values.

## C=CC(=O)OCCCOc1ccc2cc(C(=O)Oc3ccc(OC(=O)c4ccc5cc(OCCCOC(=O)C=C)ccc5c4)c(C=O)c3)ccc2c1 [RM-01]
[1]
  Solubility TXB: ∘
  Solubility Cyclopentanone: ∘
  Solubility Toluene + Heated: ∘
[2]
  Δn (Solvent, Film): 0.17 (TXB, TAC)

## C=CC(=O)OCCCCCCOc1ccc2cc(C(=O)Oc3ccc(OC(=O)c4ccc5cc(OCCCCCCOC(=O)C=C)ccc5c4)c(C=O)c3)ccc2c1 [RM-02]
[1]
  Solubility TXB: ∘
  Solubility Toluene + Heated: ∘
[2]
  Δn (Solvent, Film): 0.18 (TXB, TAC)

## C=CC(=O)OCCCOc1ccc2cc(C(=O)Oc3ccc(OC(=O)c4ccc5cc(OCCCOC(=O)C=C)ccc5c4)c(S(=O)(=O)CC)c3)ccc2c1 [RM-07]
[1]
  Solubility TXB: ∘
  Solubility Cyclopentanone: ∘
  Solubility Toluene + Heated: ∘
  Solubility Toluene: ∘
[2]
  Δn (Solvent, Film): 0.19 (TXB, TAC)

## C=CC(=O)OCCCCCCOc1ccc2cc(C(=O)Oc3ccc(OC(=O)c4ccc5cc(OCCCCCCOC(=O)C=C)ccc5c4)cc3)ccc2c1 [RM-10, reference compound]
[1]
  Solubility in TXB mixed solvent: not dissolved in TXB mixed solvent at all
  Solubility in toluene: not dissolved in toluene at all
  Solubility in toluene with heating: just opaque solution was obtained

## C=CC(=O)OCCCOc1ccc2cc(C(=O)Oc3ccc(OC(=O)c4ccc5cc(OCCCOC(=O)C=C)ccc5c4)c(S(C)(=O)=O)c3)ccc2c1 [RM-05]
[1]
  Solubility TXB: ∘
  Solubility Cyclopentanone: ∘
  Solubility Toluene + Heated: ∘
  Solubility Toluene: ∘
[2]
  Δn (Solvent, Film): 0.19 (TXB, TAC)

## C=CC(=O)OCCCOc1ccc(C(=O)Oc2ccc(OC(=O)c3ccc(OCCCOC(=O)C=C)cc3)c(C)c2)cc1 [RM257, reference compound]
[1]
  Solubility TXB: ∘
  Solubility Cyclopentanone: ∘
  Solubility Toluene + Heated: ∘
[2]
  Δn (Solvent, Film): 0.12 (TXB, TAC)

## C=CC(=O)OCCCOc1ccc2cc(C(=O)Oc3ccc(OC(=O)c4ccc5cc(OCCCOC(=O)C=C)ccc5c4)c([N+](=O)[O-])c3)ccc2c1 [RM-03]
[1]
  Solubility TXB: ∘
  Solubility Cyclopentanone: ∘
  Solubility Toluene + Heated: ∘
  Solubility Toluene: ∘
[2]
  Δn (Solvent, Film): 0.17 (TXB, TAC)

## C=CC(=O)OCCCOc1ccc2cc(C(=O)Oc3ccc(OC(=O)c4ccc5cc(OCCCOC(=O)C=C)ccc5c4)cc3)ccc2c1 [RM-09, reference compound]
[1]
  Solubility in TXB mixed solvent: not dissolved in TXB mixed solvent at all
  Solubility in toluene: not dissolved in toluene at all
  Solubility in toluene with heating: just opaque solution was obtained

## C=CC(=O)OCCCCCCOc1ccc2cc(C(=O)Oc3ccc(OC(=O)c4ccc5cc(OCCCCCCOC(=O)C=C)ccc5c4)c([N+](=O)[O-])c3)ccc2c1 [RM-04]
[1]
  Solubility TXB: ∘
  Solubility Cyclopentanone: ∘
  Solubility Toluene + Heated: ∘
[2]
  Δn (Solvent, Film): 0.20 (TXB, TAC)

## C=CC(=O)OCCCCCCOc1ccc2cc(C(=O)Oc3ccc(OC(=O)c4ccc5cc(OCCCCCCOC(=O)C=C)ccc5c4)c(S(=O)(=O)CC)c3)ccc2c1 [RM-08]
[1]
  Solubility TXB: ∘
  Solubility Cyclopentanone: ∘
  Solubility Toluene + Heated: ∘
[2]
  Δn (Solvent, Film): 0.22 (TXB, TAC)

## C=CC(=O)OCCCCCCOc1ccc2cc(C(=O)Oc3ccc(OC(=O)c4ccc5cc(OCCCCCCOC(=O)C=C)ccc5c4)c(S(C)(=O)=O)c3)ccc2c1 [RM-06]
[1]
  Solubility TXB: ∘
  Solubility Cyclopentanone: ∘
  Solubility Toluene + Heated: ∘
[2]
  Δn (Solvent, Film): 0.20 (TXB, TAC)
